Experimental data reported in patent US9150592B2, “Heterocyclic nuclear hormone receptor modulators” (AbbVie Inc., priority 2012, dated 2015).

Legend:
[1] = molecular target: T1, Glucocorticoid Receptor (GR) (Homo sapiens, UniProt P04150); test: GR Fluorescence Polarization Assay (PolarScreen Glucocorticoid Receptor Competitor Assay, Red); details: IC50 class ranges, read-out: GR binding
T1 construct: purchased Invitrogen P2893
T1 sequence (P04150 1-777): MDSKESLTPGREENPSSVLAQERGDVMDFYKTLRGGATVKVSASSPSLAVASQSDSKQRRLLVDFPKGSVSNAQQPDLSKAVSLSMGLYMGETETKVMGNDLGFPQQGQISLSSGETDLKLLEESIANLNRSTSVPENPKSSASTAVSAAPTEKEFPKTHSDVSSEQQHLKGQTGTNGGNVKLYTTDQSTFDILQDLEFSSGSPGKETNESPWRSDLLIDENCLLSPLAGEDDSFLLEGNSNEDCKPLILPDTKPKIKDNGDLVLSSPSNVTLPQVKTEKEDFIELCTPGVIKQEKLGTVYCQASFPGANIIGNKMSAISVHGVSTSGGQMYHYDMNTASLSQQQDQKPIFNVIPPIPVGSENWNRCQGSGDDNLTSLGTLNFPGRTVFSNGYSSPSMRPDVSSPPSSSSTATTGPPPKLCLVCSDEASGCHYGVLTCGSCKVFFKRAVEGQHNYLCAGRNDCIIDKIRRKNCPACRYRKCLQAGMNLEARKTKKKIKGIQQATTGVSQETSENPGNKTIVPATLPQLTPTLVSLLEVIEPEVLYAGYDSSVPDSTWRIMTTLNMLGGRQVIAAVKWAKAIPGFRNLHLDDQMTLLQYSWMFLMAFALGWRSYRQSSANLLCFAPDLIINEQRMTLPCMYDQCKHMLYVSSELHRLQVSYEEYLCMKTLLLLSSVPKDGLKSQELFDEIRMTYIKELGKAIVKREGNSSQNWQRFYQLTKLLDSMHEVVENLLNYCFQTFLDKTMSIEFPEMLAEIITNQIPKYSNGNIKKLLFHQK
Outline: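 Competitive fluorescence-polarization assay using a red fluorescent glucocorticoid tracer with human GR in kit buffer. Compounds serially diluted 1:4 in DMSO, incubated with tracer and GR overnight at 4° C, then polarization read.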

[2] = test system: IL-6 in A549 cells stimulated with IL-1β; test: A549 Cell Assay to Measure Inflammation Markers (inhibition of IL-1β-induced IL-6); type: cell-based; details: intrinsic activity, Emax class ranges; for Emax: Homo sapiens, A549, A549 Cell Assay to Measure Inflammation Markers
Outline: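 Compound pre-incubated with A549 cells 1 h at 37 °C, then stimulated with IL-1β (1 ng/mL final, 0.1% DMSO). Supernatant IL-6 quantified by MSD immunoassay after a further incubation. IC50 and Emax derived.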

Structure (SMILES)	IC50 [1]	Emax [2]	A549 Emax ([2]; A549 Cell Assay to Measure Inflammation Markers)
Cc1cc(Cl)ccc1[C@H]1S[C@H](CCO)CNc2c1c(C)nn2C (single isomer, unassigned) [M.14, 2-[4-(4-chloro-2-methyl-phenyl)-1,3-dimethyl-4,6,7,8-tetrahydro-1H-pyrazolo[3,4-e][1,4]thiazepin-6-yl]-ethanol]	100 to 1000 nM	> 70%	
Cn1nc(-c2ccccn2)c2c1NCCSC2c1ccc(Cl)cc1 (centres unmarked) [D.23]	100 to 1000 nM	< 50%	
CN(C)c1ccc(C2SCCNc3c2c(-c2ccccn2)nn3C)c(Cl)c1 (centres unmarked) [D.6]	100 to 1000 nM	< 50%	
Cc1cc(F)ccc1C1SC(C)(C)CNc2c1c(C1CC1)nn2C (centres unmarked) [D.56]	< 100 nM	< 50%	
Cc1cc(C(F)(F)F)ccc1C1SC(C)(C)CNc2c1c(C)nn2C (centres unmarked) [D.61]	< 100 nM	< 50%	
Cc1cc(Cl)ccc1C1SCCNc2c1c(-c1ccccn1)nn2C (single isomer, unassigned)	100 to 1000 nM	< 50%	
Cc1cc(Cl)ccc1C1SCCNc2c1c(-c1cc(Cl)ccn1)nn2C (centres unmarked) [D.24]	< 100 nM	< 50%	
Cc1cc(C#CCCO)ccc1[C@@H]1SC[C@H](C)Nc2c1c(-c1ccccn1)nn2C (single isomer, unassigned) [M.54, 4-(4-(1,7-dimethyl-3-(pyridin-2-yl)-4,6,7,8-tetrahydro-1H-pyrazolo[3,4-e][1,4]thiazepin-4-yl)-3-methylphenyl)but-3-yn-1-ol]	< 100 nM	< 50%	
Cc1cc(C(=O)Nc2cccnc2C)ccc1[C@H]1SCCNc2c1c(-c1ccccn1)nn2C	100 to 1000 nM		B (a compound with Emax>60%)
Cn1nc(C2CC2)c2c1NCC(C)(C)SC2c1ccc(Cl)cc1C(F)(F)F (centres unmarked) [D.48]	100 to 1000 nM	< 50%	
Cn1nc(-c2ccccn2)c2c1NCCSC2c1ccc(Br)cc1 (centres unmarked) [D.25, 4-(4-bromophenyl)-1-methyl-3-(2-pyridyl)-4,6,7,8-tetrahydropyrazolo[3,4-e][1,4]thiazepine]	100 to 1000 nM	< 50%	
Cn1nc(-c2cccs2)c2c1NCCSC2c1ccc(Cl)cc1Cl (centres unmarked) [D.101]	< 100 nM	< 50%	
CCn1nc(-c2ccccn2)c2c1NCCSC2c1ccc(C(=O)Nc2cccnc2Cl)cc1C (centres unmarked) [S.10]	< 100 nM	> 70%	
Cc1ncccc1NC(=O)c1ccc(-c2nn(C)c3c2C(c2ccc(Cl)cc2Cl)SCCN3)nc1 (centres unmarked) [F.2]	1000 to 10000 nM	< 50%	
Cc1cc(CCCO)ccc1[C@@H]1SC[C@H](C)Nc2c1c(-c1ccccn1)nn2C (single isomer, unassigned) [M.52, 3-(4-(1,7-dimethyl-3-(pyridin-2-yl)-4,6,7,8-tetrahydro-1H-pyrazolo[3,4-e][1,4]thiazepin-4-yl)-3-methylphenyl)propan-1-ol]	< 100 nM	< 50%	
Cc1nn(C)c2c1C(c1ccc(Cl)cc1Cl)SCCN2 (centres unmarked) [D.80]	100 to 1000 nM	< 50%	
Cn1nc(C2CCCC2)c2c1NCCSC2c1ccc(Cl)cc1Cl (centres unmarked) [D.77]	< 100 nM	< 50%	
COC(=O)c1ccc(C)c(C2SCCNc3c2c(-c2ccccn2)nn3C)c1 (centres unmarked) [E.3, methyl 4-methyl-3-[1-methyl-3-(2-pyridyl)-4,6,7,8-tetrahydropyrazolo[3,4-e][1,4]thiazepin-4-yl]benzoate]	> 10000 nM	< 50%	
Cc1cc(Br)ccc1C1SCCNc2onc(-c3ccccn3)c21 (centres unmarked) [D.44, 4-(4-bromo-2-methyl-phenyl)-3-(2-pyridyl)-4,6,7,8-tetrahydroisoxazolo-[5,4-e][1,4]thiazepine]	< 100 nM	< 50%	
